Experimental data taken from US6228880A, “4-amino-(ethylamino)-oxindole dopamine autoreceptor agonists” (American Home Products Corp, priority 1999, dated 2001).
Counter-ions that a name gives are not always drawn.

Tests used:
dopamine D2 receptor [1] = target: T1, dopamine D2 receptor (Rattus norvegicus, UniProt P61169); assay: Affinity for the dopamine D2 receptor, 3H-spiroperidol binding in limbic brain tissue homogenate (D2 Spiper); conditions: 3H-spiroperidol (Spiper.); homogenized limbic brain tissue
T1 construct: from tissue; host or cells: limbic brain tissue homogenate
T1 sequence (P61169 whole entry): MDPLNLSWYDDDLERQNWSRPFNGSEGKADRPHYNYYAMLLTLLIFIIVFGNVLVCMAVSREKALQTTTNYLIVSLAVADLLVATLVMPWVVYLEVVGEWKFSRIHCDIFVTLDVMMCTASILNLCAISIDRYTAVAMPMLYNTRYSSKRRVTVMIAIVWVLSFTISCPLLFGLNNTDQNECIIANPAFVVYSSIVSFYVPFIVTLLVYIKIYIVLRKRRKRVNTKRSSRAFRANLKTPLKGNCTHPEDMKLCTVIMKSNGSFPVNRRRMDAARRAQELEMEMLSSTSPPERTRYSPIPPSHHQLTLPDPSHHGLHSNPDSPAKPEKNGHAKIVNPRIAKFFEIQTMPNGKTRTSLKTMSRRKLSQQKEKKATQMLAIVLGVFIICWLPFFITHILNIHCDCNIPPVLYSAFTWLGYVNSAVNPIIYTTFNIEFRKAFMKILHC
Description: High affinity for the dopamine D2 receptor was established by the standard experimental test procedure of Fields, et al., Brain Res., 136:578 (1977) and Yamamura et al., eds., Neurotransmitter Receptor Binding, Raven Press, N.Y. (1978). Homogenized limbic brain tissue was incubated with ^3 H-spiroperidol (Spiper.) and the appropriate concentrations of test compound, filtered, washed and shaken with Hydrofluor scintillation cocktail (available from National Diagnostics) and counted in a Packard 460 CD scintillation counter.

[2] = target: T2, dopamine autoreceptor (D2) (Rattus norvegicus, UniProt P61169); assay: Affinity for the dopamine autoreceptor, rat striatal tissue homogenate (D2 Quin.); type: binding; conditions: homogenized rat striatal brain tissue
T2 construct: from tissue; host or cells: rat striatum homogenate
T2 sequence (P61169 whole entry): as above
Description: (§1) The affinity for the dopamine autoreceptor was established by the standard experimental test procedure of Seemen and Schaus, European Journal of Pharmacology, 203:105-109 (1991). According to this procedure, homogenized rat striatal brain tissue was incubated with the appropriate concentrations of test compound, filtered and washed and counted in a Betaplate scintillation counter.

dopamine D2 receptor [3] = target: T1, dopamine D2 receptor; assay: Ratio of D2 Spiper to D2 Quin. (LowAg/HighAg, intrinsic activity); type: binding; conditions: D2 Spiper IC50 / D2 Quin. IC50 (LowAg/HighAg)
Description: Efforts to induce antipsychotic activity with dopamine autoreceptor agonists have been successful (e.g., see Dorsini et al., Adv. Biochem. Psychopharmacol., 16:645-648 (1977); Tamminga et al., Science, 200:567-568 (1975); and Tamminga et al., Psychiatry 398-402 (1986). A method for determining intrinsic activity at the dopamine D2 receptor was recently reported by Lahti et al., Mol. Pharm. 42:432-438 (1993). Intrinsic activity is predicted using the ratio of the "low-affinity agonist" (i.e., LowAg) state of the receptor and the "high-affinity agonist" (i.e., HighAg) state of the receptor, i.e. LowAg/HighAg. These ratios correlate with the agonist, partial agonist, and antagonist activities of a given compound. Such activities characterize the ability of a compound to elicit an antipsychotic effect.
as §1, with “counter. […]” for “counter.”

Q: Which results are given for `O=C1Cc2c(NCCNCc3ccccc3)cccc2N1` [Example 1, 4-(2-Benzylamino-ethylamino)-1,3-dihydro-indol-2-one.dihydrochloride.0.1 hydrate]?
A: IC50 (dopamine D2 receptor [1]): 892 nM; IC50 [2]: 13.2 nM; Ratio (dopamine D2 receptor [3]): 67.7
